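Each compound was tested at five concentrations against cells in 96-well plates for 48 hours. GI50 = concentration required for 50% inhibition of growth. TGI: total growth inhibition.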
Assays:
Experiment in all cases: NCI tumour cell line growth inhibition, 48 h
[1] = system: OVCAR-3 ovarian
[2] = system: HS 578T breast
[3] = system: SNB-19 CNS
[4] = system: OVCAR-4 ovarian
[5] = system: SNB-75 CNS
[6] = system: SF-295 CNS
[7] = system: 786-0 renal
[8] = system: KM12 colon
[9] = system: MDA-MB-231 breast
[10] = system: SK-MEL-2 melanoma
[11] = system: MDA-MB-435
[12] = system: HCT-15 colon
[13] = system: NCI/ADR-RES ovarian
[14] = system: NCI-H460 lung
[15] = system: SK-OV-3 ovarian
[16] = system: IGROV1 ovarian
[17] = system: RPMI-8226 leukemia
[18] = system: SR leukemia
[19] = system: M14 melanoma
[20] = system: HCC-2998 colon
[21] = system: SK-MEL-28 melanoma
[22] = system: A549 NSCLC
[23] = system: A498 renal
[24] = system: BT-549 breast
[25] = system: OVCAR-5 ovarian
[26] = system: SF-268 CNS
[27] = system: NCI-H23 lung
[28] = system: HOP-92 NSCLC
[29] = system: LOX IMVI melanoma
[30] = system: T-47D breast
[31] = system: UO-31 renal
[32] = system: NCI-H522 lung
[33] = system: HCT-116 colon
[34] = system: PC-3 prostate
[35] = system: U251 CNS
[36] = system: HOP-62 NSCLC
[37] = system: OVCAR-8 ovarian
[38] = system: MCF7 breast
[39] = system: SF-539 CNS
[40] = system: RXF 393 renal
[41] = system: ACHN renal
[42] = system: CAKI-1 renal
[43] = system: UACC-62 melanoma
[44] = system: NCI-H226 lung
[45] = system: EKVX NSCLC
[46] = system: CCRF-CEM leukemia
[47] = system: SW-620 colon
[48] = system: MALME-3M melanoma
[49] = system: SN12C renal
[50] = system: COLO 205 colon
[51] = system: MOLT-4 leukemia
[52] = system: HT29 colon
[53] = system: DU-145 prostate
[54] = system: K-562 leukemia
[55] = system: HL-60(TB) leukemia
[56] = system: SK-MEL-5 melanoma
[57] = system: TK-10 renal
[58] = system: UACC-257 melanoma

`Nc1cccc(-c2nc3sccn3c2-c2ccnc(NCCCNS(=O)(=O)c3ccc(C(F)(F)F)cc3)n2)c1` gave a GI50 [1] of 3.87 µM, a TGI [1] of 23.4 µM and a GI50 [2] of 4.05 µM. It also gave a TGI [2] of 61.6 µM, a GI50 [3] of 8.33 µM and a TGI [3] of over 100 µM. It also gave a GI50 [4] of 3.27 µM, a TGI [4] of 22.8 µM and a GI50 [5] of 1.83 µM. It also gave a TGI [5] of 23.1 µM, a GI50 [6] of 3.08 µM and a TGI [6] of 10.1 µM. The GI50 [7] was 5.74 µM, the TGI [7] was over 100 µM and the GI50 [8] was 3.6 µM. It also gave a TGI [8] of 13.8 µM, a GI50 [9] of 4.85 µM and a TGI [9] of 94 µM. The GI50 [10] was 4.66 µM, the TGI [10] was 23.4 µM and the GI50 [11] was 3.21 µM. The TGI [11] was 12.3 µM, the GI50 [12] was 3.33 µM and the TGI [12] was 29.9 µM. For the same molecule, the GI50 [13] was 3.36 µM, the TGI [13] was 56.9 µM and the GI50 [14] was 4.58 µM. For the same molecule, the TGI [14] was 58.6 µM, the GI50 [15] was 5.37 µM and the TGI [15] was over 100 µM. For the same molecule, the GI50 [16] was 3.75 µM, the TGI [16] was 23.4 µM and the GI50 [17] was 2.45 µM. For the same molecule, the TGI [17] was 6.54 µM, the GI50 [18] was 3.84 µM and the TGI [18] was 43.9 µM. The GI50 [19] was 3.89 µM, the TGI [19] was 15.3 µM and the GI50 [20] was 5.29 µM. For the same molecule, the TGI [20] was 92 µM, the GI50 [21] was 5.07 µM and the TGI [21] was 26.7 µM. It also gave a GI50 [22] of 4.1 µM, a TGI [22] of 87.4 µM and a GI50 [23] of 3.35 µM. For the same molecule, the TGI [23] was 49.5 µM, the GI50 [24] was 2.95 µM and the TGI [24] was 13.1 µM. The GI50 [25] was 13.7 µM, the TGI [25] was 95.1 µM and the GI50 [26] was 3.97 µM. For the same molecule, the TGI [26] was 49.6 µM, the GI50 [27] was 5.07 µM and the TGI [27] was 40.9 µM. For the same molecule, the GI50 [28] was 11.4 µM, the TGI [28] was 83.5 µM and the GI50 [29] was 3.27 µM. For the same molecule, the TGI [29] was 16.1 µM, the GI50 [30] was 1.37 µM and the TGI [30] was 5.18 µM. For the same molecule, the GI50 [31] was 3.2 µM, the TGI [31] was 27.5 µM and the GI50 [32] was 3.35 µM. For the same molecule, the TGI [32] was 18.2 µM, the GI50 [33] was 3.55 µM and the TGI [33] was 30.5 µM. The GI50 [34] was 2.41 µM, the TGI [34] was 11.9 µM and the GI50 [35] was 5.87 µM. For the same molecule, the TGI [35] was over 100 µM, the GI50 [36] was 5.16 µM and the TGI [36] was 24.3 µM. The GI50 [37] was 3.49 µM, the TGI [37] was 44.9 µM and the GI50 [38] was 4.04 µM. It also gave a TGI [38] of 18.5 µM, a GI50 [39] of 6.66 µM and a TGI [39] of 29.6 µM. It also gave a GI50 [40] of 6.29 µM, a TGI [40] of over 100 µM and a GI50 [41] of 3.34 µM. For the same molecule, the TGI [41] was 27.1 µM, the GI50 [42] was 3.25 µM and the TGI [42] was 72.1 µM. It also gave a GI50 [43] of 2.68 µM, a TGI [43] of 9.71 µM and a GI50 [44] of 3.14 µM. It also gave a TGI [44] of 16.5 µM, a GI50 [45] of 6.09 µM and a TGI [45] of 86.1 µM. The GI50 [46] was 3.06 µM, the TGI [46] was 14.4 µM and the GI50 [47] was 8 µM. For the same molecule, the TGI [47] was over 100 µM, the GI50 [48] was 3.94 µM and the TGI [48] was 18 µM. It also gave a GI50 [49] of 4.36 µM, a TGI [49] of over 100 µM and a GI50 [50] of 3.32 µM. For the same molecule, the TGI [50] was 13.1 µM, the GI50 [51] was 2.8 µM and the TGI [51] was 10.4 µM. For the same molecule, the GI50 [52] was 2.85 µM, the TGI [52] was 13.7 µM and the GI50 [53] was 4.26 µM. For the same molecule, the TGI [53] was 35.6 µM, the GI50 [54] was 2.77 µM and the TGI [54] was over 100 µM. It also gave a GI50 [55] of 3.28 µM, a TGI [55] of 11.8 µM and a GI50 [56] of 2.2 µM. For the same molecule, the TGI [56] was 5.2 µM, the GI50 [57] was 11.1 µM and the TGI [57] was over 100 µM. The GI50 [58] was 5.27 µM and the TGI [58] was 50.6 µM.

Source: PubChem BioAssay (NCI)
